Where two headings read alike, the source gives them in different places.

Data set [1] deals with platelet aggregation induced by ADP. Briefly: Test of inhibitory effect of compounds on platelet aggregation in rats (ex vivo, ADP-induced, after intragastric administration). Set-up: species or system SD rats. To be noted: for ED50: Rattus norvegicus; for Inhibition rate (%): platelet aggregation, control = 100%; for Aggregation rate (%): 2 h after administration, ADP 20 uM. The procedure:
Test of Inhibitory Effect of Compounds on Platelet Aggregation in Rats Healthy male SD rats were selected and randomly divided into solvent control group, positive drug control group and test compound group. Intragastric administration was carried out, with the administration volume being 10 ml/kg˜bw. […] The platelet count was adjusted to 5×10^8 cells/ml with PPP.

Data set [2] in a line: Stability of the compounds under high temperature, high humidity and light (influence factors, HPLC). The class given is physicochemical. The procedure:
Study on the Stability of the Compounds:
The stability of the compound is investigated under the conditions of high temperature, high humidity and light. The testing conditions for high performance liquid chromatography (HPLC) are as follows:
Instrument: high performance liquid chromatography;
Column: Inertsil C8-3, 150 mm×4.6 mm, 5 μm;
Mobile phase A: acetonitrile; mobile phase B: 5 mM ammonium dihydrogen phosphate;
Detection wavelength: 220 nm;
Column temperature: 35° C.;
Sample chamber temperature: 25° C.;
Column: Agilent Poroshell 120 EC-C18, 100 mm×4.6 mm, 2.7 μm;
Column temperature: 30° C.;
Other conditions are the same as that in Method 1.
Samples relating to Compound I-2 were tested using Method 2 and other samples were tested using Method 1. The test results of the influence factors are shown in Table 14, and the test results of the light-avoidance stability test are shown in Table 15.

Where [3] appears, read: inhibition of ADP-induced platelet aggregation, rats, oral administration, read-out: ED50.
Where [4] appears, read: 5 days, High temperature 60° C.
[5] abbreviates: 10 days, High temperature 60° C.
[6] abbreviates: 30 days, High temperature 60° C.

Usually ED50 stands for the midpoint of the dose-response relation. With `C=C/C=C/C(=O)Oc1cc2c(s1)CCN([C@H](C(=O)OC)c1ccccc1Cl)C2` [Compound I-3, Methyl (S,E)-2-(2-chlorophenyl)-2-(2-(2,4-pentadienoyloxy)-6,7-dihydrothieno[3,2-c]pyridin-5(4H)-yl)-acetate], in data set [1] (setting [3]), the ED50 is 1.04 mg/kg. The “Inhibition rate (%)” value is reported as 44.0% in data set [1] (rats, intragastric 1 mg/kg); 97.6% in data set [1] (rats, intragastric 2 mg/kg); 100% in data set [1] (rats, intragastric 4 mg/kg). The “Aggregation rate (%)” value is 33.6 ± 31.3% in data set [1] (rats, intragastric 1 mg/kg); 1.44 ± 2.5 % in data set [1] (rats, intragastric 2 mg/kg); 0.0 ± 0.0 % in data set [1] (rats, intragastric 4 mg/kg).
With `CC/C=C/C(=O)Oc1cc2c(s1)CCN([C@H](C(=O)OC)c1ccccc1Cl)C2` [Compound I-4, Methyl (S,E)-2-(2-chlorophenyl)-2-(2-(2-pentenoyloxy)-6,7-dihydrothieno[3,2-c]pyridin-5(4H)-yl)-acetate], the 50% effective dose (ED50) in data set [1] (setting [3]) is 1.27 mg/kg. Also, the “Inhibition rate (%)” value in data set [1] (rats, intragastric 0.5 mg/kg) was found to be 26.2%; in data set [1] (rats, intragastric 1 mg/kg), 38.2%; in data set [1] (rats, intragastric 2 mg/kg), 62.9%; in data set [1] (rats, intragastric 4 mg/kg), 78.4%; in data set [1] (rats, intragastric 8 mg/kg), 100.0%. For the same compound, the “Aggregation rate (%)” value in data set [1] (rats, intragastric 0.5 mg/kg) amounted to 44.3 ± 25.8%; in data set [1] (rats, intragastric 1 mg/kg) it was 37.1 ± 20.8%; in data set [1] (rats, intragastric 2 mg/kg), 22.3 ± 17.2 %; in data set [1] (rats, intragastric 4 mg/kg), 13.0 ± 11.3 %; in data set [1] (rats, intragastric 8 mg/kg), 0.0 ± 0.0 %.
Turning to `COC(=O)[C@H](c1ccccc1Cl)N1CCc2sc(OC(C)=O)cc2C1.Cl` [Compound D-9, Methyl (S,E)-2-(2-chlorophenyl)-2-(2-acetoxy-6,7-dihydrothieno[3,2-c]pyridin-5(4H)-yl)-acetate Hydrochloride, reference compound], the Chromatographic purity % in data set [2] (0 day, 0point) was found to be 99.802%; in data set [2] (5 days, High humidity RH92.5%), 29.362%; in data set [2] (setting [4]), 92.725%; in data set [2] (5 days, Light 4500 ± 500 LX) it was 97.637%; in data set [2] (10 days, High humidity RH92.5%) it was 3.827%; in data set [2] (setting [5]), 84.395%. Further, the Chromatographic purity % in data set [2] (10 days, Light 4500 ± 500 LX) amounted to 96.472%; in data set [2] (setting [6]), 39.866%; in data set [2] (30 days, Light 4500 ± 500 LX), 91.198%. The “Individual maximum impurity %” value in data set [2] (0 day, 0point) was 0.062%; in data set [2] (5 days, High humidity RH92.5%) it was 20.760%; in data set [2] (setting [4]), 2.897%; in data set [2] (5 days, Light 4500 ± 500 LX), 0.946%; in data set [2] (10 days, High humidity RH92.5%) it was 26.942%; in data set [2] (setting [5]), 5.254%. Also, the “Individual maximum impurity %” value is on record as 1.621% in data set [2] (10 days, Light 4500 ± 500 LX); 52.717% in data set [2] (30 days, High humidity RH92.5%); 9.740% in data set [2] (setting [6]); 3.728% in data set [2] (30 days, Light 4500 ± 500 LX).
For `COC(=O)[C@H](c1ccccc1Cl)N1CCc2sc(OC(=O)/C=C/c3ccc(OC)cc3)cc2C1` [Compound D-8, Methyl (S,E)-2-(2-chlorophenyl)-2-(2-(3-(4-methoxyphenyl)acryloyloxy)-6,7-dihydrothieno[3,2-c]pyridin-5(4H)-yl)-acetate, reference compound], the Chromatographic purity % in data set [2] (0 day, 0point) was 99.118%; in data set [2] (5 days, High humidity RH92.5%) it was 99.253%; in data set [2] (setting [4]) it was 96.953%; in data set [2] (5 days, Light 4500 ± 500 LX), 91.635%; in data set [2] (10 days, High humidity RH92.5%), 99.202%; in data set [2] (setting [5]) it was 93.371%. Further, the Chromatographic purity % in data set [2] (10 days, Light 4500 ± 500 LX) worked out at 80.960%; in data set [2] (30 days, High humidity RH92.5%) it was 98.933%; in data set [2] (setting [6]) it was 80.070%; in data set [2] (30 days, Light 4500 ± 500 LX) it was 59.908%. The “Individual maximum impurity %” value in data set [2] (0 day, 0point) stood at 0.135%; in data set [2] (5 days, High humidity RH92.5%), 0.127%; in data set [2] (setting [4]) it was 0.510%; in data set [2] (5 days, Light 4500 ± 500 LX), 1.094%; in data set [2] (10 days, High humidity RH92.5%), 0.104%; in data set [2] (setting [5]) it was 1.224%. Besides, the “Individual maximum impurity %” value in data set [2] (10 days, Light 4500 ± 500 LX) is 2.821%; in data set [2] (30 days, High humidity RH92.5%) it was 0.172%; in data set [2] (setting [6]), 5.418%; in data set [2] (30 days, Light 4500 ± 500 LX), 8.206%.
The compound `CCC/C=C/C(=O)Oc1cc2c(s1)CCN([C@H](C(=O)OC)c1ccccc1Cl)C2` [Compound I-5, Methyl (S,E)-2-(2-chlorophenyl)-2-(2-(2-hexenoyloxy)-6,7-dihydrothieno[3,2-c]pyridin-5(4H)-yl)-acetate] had an ED50 in data set [1] (Platelet, po) of 1.03 mg/kg. Besides, the “Inhibition rate (%)” value in data set [1] (rats, intragastric 0.5 mg/kg) came out at 19.5%; in data set [1] (rats, intragastric 1 mg/kg), 52.8%; in data set [1] (rats, intragastric 2 mg/kg), 74.3%. Further, the “Aggregation rate (%)” value is 48.4 ± 17.3% in data set [1] (rats, intragastric 0.5 mg/kg); 28.3 ± 11.7 % in data set [1] (rats, intragastric 1 mg/kg); 15.4 ± 14.7 % in data set [1] (rats, intragastric 2 mg/kg).
